Assay results taken from patent publication US6667312B2, “Thioether substituted imidazoquinolines” (3M Innovative Properties Company, priority 2000, dated 2003).
Structures can show the parent of a compound that is named as a salt.

What was measured:
interferon (α) = assay: Cytokine Induction in Human Cells: interferon; format: cell-based; details: human PBMC, 18 to 24 hours, tested 30-0.014 μM, interferon (α) by ELISA; read-out: Lowest Effective Concentration (μM) Interferon
Text: (§1) An in vitro human blood cell system is used to assess cytokine induction. Activity is based on the measurement of interferon and tumor necrosis factor (α) (IFN and TNF, respectively) secreted into culture media as described by Testerman et. al. In “Cytokine Induction by the Immunomodulators Imiquimod and S-27609”, Journal of Leukocyte Biology, 58, 365-372 (September, 1995).
(§2) Whole blood from healthy human donors is collected by venipuncture into EDTA vacutainer tubes. Peripheral blood mononuclear cells (PBMC) are separated from whole blood by density gradient centrifugation using Histopaque®-1077. Blood is diluted 1:1 with Dulbecco's Phosphate Buffered Saline (DPBS) or Hank's Balanced Salts Solution (HBSS). The PBMC layer is collected and washed twice with DPBS or HBSS and resuspended at 4×10^6 cells/mL in RPMI complete. The PBMC suspension is added to 48 well flat bottom sterile tissue culture plates (Costar, Cambridge, Mass. or Becton Dickinson Labware, Lincoln Park, N.J.) containing an equal volume of RPMI complete media containing test compound.
(§3) The compounds are solubilized in dimethyl sulfoxide (DMSO). The DMSO concentration should not exceed a final concentration of 1% for addition to the culture wells. The compounds are generally tested at concentrations ranging from 30-0.014 μM.
(§4) The solution of test compound is added at 60 μM to the first well containing RPMI complete and serial 3 fold dilutions are made in the wells. The PBMC suspension is then added to the wells in an equal volume, bringing the test compound concentrations to the desired range (30-0.014 μM). The final concentration of PBMC suspension is 2×10^6 cells/mL. The plates are covered with sterile plastic lids, mixed gently and then incubated for 18 to 24 hours at 37° C. in a 5% carbon dioxide atmosphere.
(§5) Following incubation the plates are centrifuged for 10 minutes at 1000 rpm (˜200× g) at 4° C. The cell-free culture supernatant is removed with a sterile polypropylene pipet and transferred to sterile polypropylene tubes. Samples are maintained at −30 to −70° C. until analysis. The samples are analyzed for interferon (α) by ELISA and for tumor necrosis factor (α) by ELISA or IGEN Assay
Interferon (α) concentration is determined by ELISA using a Human Multi-Species kit from PBL Biomedical Laboratories, New Brunswick, N.J. Results are expressed in pg/mL.
(§6) The table below lists the lowest concentration found to induce interferon and the lowest concentration found to induce tumor necrosis factor for each compound.

[1] = tested on: tumor necrosis factor (α); assay: Cytokine Induction in Human Cells: tumor necrosis factor; format: cell-based; details: human PBMC, 18 to 24 hours, tested 30-0.014 μM, TNF by ELISA or IGEN assay; read-out: Lowest Effective Concentration (μM) Tumor Necrosis Factor
Text: as §1, §2, §3, §4, §5
Tumor necrosis factor (α) (TNF) concentration is determined using ELISA kits available from Biosource International, Camarillo, Calif. Alternately, the TNF concentration can be determined by Origen® M-Series Immunoassay and read on an IGEN M-8 analyzer from IGEN International, Gaithersburg, Md. The immunoassay uses a human TNF capture and detection antibody pair from Biosource International, Camarillo, Calif. Results are expressed in pg/mL.
as §6

SMILES	melting point [°C]	minimal effective concentration (interferon (α)) [µM]	minimal effective concentration [1] [µM]
CCCCc1nc2c(N)nc3c(c2n1CCSc1ccccc1)CCCC3 (as salt: hydrochloride) [Example 2, 2-butyl-1-[2-(phenylthio)ethyl]-6,7,8,9-tetrahydro-1H-imidazo[4,5-c]quinolin-4-amine Hydrochloride]	237 to 238	–	–
CCCCc1nc2c(N)nc3c(c2n1CCSc1ccccc1)CCCC3 [Example 2, 2-butyl-1-[2-(phenylthio)ethyl]-6,7,8,9-tetrahydro-1H-imidazo[4,5-c]quinolin-4-amine Hydrochloride]	–	0.12	0.37
CCCCc1nc2c(N)nc3ccccc3c2n1CCCCCS(C)(=O)=O [Example 11, 2-butyl-1-[5-(methylsulfonyl)pentyl]-1H-imidazo[4,5-c]quinolin-4-amine]	–	0.01	0.12
CCc1nc2c(N)nc3ccccc3c2n1CCCCCS(C)(=O)=O [Example 13, 2-ethyl-1-[5-(methylsulfonyl)pentyl]-1H-imidazo[4,5-c]quinolin-4-amine]	–	0.12	3.33
CCCc1nc2c(N)nc3ccccc3c2n1CCCCS(C)(=O)=O [Example 30, 1-[4-(methylsulfonyl)butyl]-2-propyl-1H-imidazo[4,5-c]quinolin-4-amine]	–	0.37	3.33
CCCCc1nc2c(N)nc3ccccc3c2n1CCCCS(=O)(=O)CC [Example 39]	–	0.04	0.04
CCCCc1nc2c(N)nc3ccccc3c2n1CCCCSC(C)(C)C [Example 40]	–	0.01	0.01
CCCCc1nc2c(N)nc3ccccc3c2n1CCCCSc1ccc(F)cc1 [Example 41]	–	0.37	0.37
CCCCc1nc2c(N)nc3ccccc3c2n1CCCCS(=O)(=O)c1ccc(F)cc1 [Example 42]	–	0.12	0.12
CCc1nc2c(N)nc3ccccc3c2n1CCCCSC(C)C [Example 43]	–	0.014	0.37
CCc1nc2c(N)nc3ccccc3c2n1CCCCSc1cc(Cl)cc(Cl)c1 [Example 44]	–	1.11	10
CCc1nc2c(N)nc3ccccc3c2n1CCCCS(=O)(=O)C1CCCC1 [Example 45]	–	0.37	1.11
CCc1nc2c(N)nc3ccccc3c2n1CCCCS(=O)(=O)c1cc(Cl)cc(Cl)c1 [Example 46]	–	0.12	0.37
CCc1nc2c(N)nc3ccccc3c2n1CCCCSC1CCCCC1 [Example 47]	–	0.37	3.33
CCCCSCCCCn1c(CC)nc2c(N)nc3ccccc3c21 [Example 48]	–	0.014	0.12
CCc1nc2c(N)nc3ccccc3c2n1CCCCSc1ccc(Cl)cc1 [Example 49]	–	0.37	1.11
CCCCS(=O)(=O)CCCCn1c(CC)nc2c(N)nc3ccccc3c21 [Example 50]	–	0.37	1.11
CCc1nc2c(N)nc3ccccc3c2n1CCCCSc1ccc(F)cc1 [Example 51]	–	0.12	1.11
CCc1nc2c(N)nc3ccccc3c2n1CCCCS(=O)(=O)C(C)C [Example 52]	–	0.37	1.11
CCSCCCCn1c(CC)nc2c(N)nc3ccccc3c21 [Example 53]	–	0.04	0.37

SMILES	melting point [°C]	minimal effective concentration (interferon (α)) [µM]	minimal effective concentration [1] [µM]
CCc1nc2c(N)nc3ccccc3c2n1CCCCS(=O)(=O)CC [Example 54]	–	0.37	1.11
CCc1nc2c(N)nc3ccccc3c2n1CCCCS(=O)(=O)C1CCCCC1 [Example 55]	–	0.12	1.11
CCCCc1nc2c(N)nc3ccccc3c2n1CCS(=O)(=O)C(C)C [Example 56]	–	0.37	0.37
CCCCc1nc2c(N)nc3ccccc3c2n1CCS(=O)(=O)c1ccccc1 [Example 57]	–	1.11	1.11
CCCCc1nc2c(N)nc3ccccc3c2n1CCS(=O)(=O)c1ccc(F)cc1 [Example 58]	–	1.11	1.11
CCCCc1nc2c(N)nc3ccccc3c2n1CCSC(C)(C)C [Example 59]	–	0.01	0.04
CCCCc1nc2c(N)nc3ccccc3c2n1CCS(=O)(=O)C(C)(C)C [Example 60]	–	0.37	0.37
CCCCc1nc2c(N)nc3ccccc3c2n1CCSCCC [Example 61]	–	0.04	0.12
CCCCc1nc2c(N)nc3ccccc3c2n1CCS(=O)(=O)CCC [Example 62]	–	0.12	0.37
CCCCc1nc2c(N)nc3ccccc3c2n1CCSCC(C)C [Example 63]	–	0.04	0.04
CCCCc1nc2c(N)nc3ccccc3c2n1CCS(=O)(=O)CC(C)C [Example 64]	–	0.12	0.12
CCCCc1nc2c(N)nc3ccccc3c2n1CCSCC [Example 65]	–	0.01	0.04
CCCCc1nc2c(N)nc3ccccc3c2n1CCS(=O)(=O)CC [Example 66]	–	0.12	0.12
CCc1nc2c(N)nc3ccccc3c2n1CCCCSc1ncccn1 [Example 72, 2-ethyl-1-[4-(pyrimidin-2-ylthio)butyl]-1H-imidazo[4,5-c]quinolin-4-amine]	182 to 185	–	–
Cc1nc2c(N)nc3c(c2n1CCCCS(C)(=O)=O)CCCC3 [Example 74, 2-methyl-1-[4-(methylsulfonyl)butyl]-6,7,8,9-tetrahydro-1H-imidazo[4,5-c]quinolin-4-amine]	213 to 216	–	–
Cc1nc2c(N)nc3c(c2n1CCCCCS(C)(=O)=O)CCCC3 [Example 75, 2-methyl-1-[5-(methylsulfonyl)pentyl]-6,7,8,9-tetrahydro-1H-imidazo[4,5-c]quinolin-4-amine]	172 to 174	–	–
Cc1nc2c(N)nc3c(c2n1CCCCS(=O)(=O)C(C)C)CCCC3 [Example 76, 2-methyl-1-{4-[(1-methylethyl)sulfonyl]butyl}-6,7,8,9-tetrahydro-1H-imidazo[4,5-c]quinolin-4-amine]	177 to 178	–	–
Cc1nc2c(N)nc3c(c2n1CCCCS(=O)(=O)c1ccc(F)cc1)CCCC3 [Example 77, 2-methyl-1-{4-[(4-fluorophenyl)sulfonyl]butyl}-6,7,8,9-tetrahydro-1H-imidazo[4,5-c]quinolin-4-amine]	159 to 162	–	–
Cc1nc2c(N)nc3c(c2n1CCCCS(=O)(=O)C(C)(C)C)CCCC3 [Example 78, 2-methyl-1-{4-[(1,1-dimethylethyl)sulfonyl]butyl}-6,7,8,9-tetrahydro-1H-imidazo[4,5-c]quinolin-4-amine]	208 to 210	–	–
CCOCc1nc2c(N)nc3c(c2n1CCCCS(C)(=O)=O)CCCC3 [Example 79, 2-ethoxymethyl-1-(4-methanesulfonyl-butyl)-6,7,8,9-tetrahydro-1H-imidazo[4,5-c]quinolin-4-amine]	170 to 171	–	–
